Measured values published in patent US8486950B2, “Janus kinase inhibitor compounds and methods” (F. Hoffmann-La Roche AG, priority 2009, dated 2013).

These compounds were tested against T1, TYK2 kinase domain (Homo sapiens, UniProt P29597) (assay: TYK2 inhibition assay (Caliper LabChip, isolated kinase domain)). Settings: not given.
T1 construct: made in house; host or cells: SF9 insect cells (recombinant baculovirus)
T1 sequence (P29597 873-1187): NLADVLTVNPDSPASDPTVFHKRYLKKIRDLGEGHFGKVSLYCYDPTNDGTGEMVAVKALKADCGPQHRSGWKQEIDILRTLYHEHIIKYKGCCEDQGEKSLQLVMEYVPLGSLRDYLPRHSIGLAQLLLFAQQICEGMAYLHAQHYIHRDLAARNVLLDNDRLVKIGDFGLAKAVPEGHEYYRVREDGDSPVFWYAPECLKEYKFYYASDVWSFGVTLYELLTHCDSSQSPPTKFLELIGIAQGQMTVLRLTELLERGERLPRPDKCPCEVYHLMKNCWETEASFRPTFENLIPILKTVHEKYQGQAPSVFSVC
Assay type: biochemical
Text: The catalytically active kinase domain of human JAK1, JAK2, JAK3 or TYK2 was purified from extracts of SF9 insect cells infected with a recombinant baculovirus expression vector encoding the human JAK1, JAK2, JAK3 or TYK2 kinase domains (JAK1 amino acid residues N852-D1154 according to the numbering of GenBank sequence accession number P23458, JAK2 amino acid residues D812-G1132 according to the numbering of GenBank sequence accession number NP_004963.1; JAK3 amino acid residues S783-S1124 according to the numbering of GenBank sequence accession number P52333, and TYK2 amino acid residues N873-C1187 according to the numbering of GenBank sequence accession number P29597). The activity of the JAK1, JAK2, JAK3 or TYK2 kinase domains can be measured by a number of direct and indirect methods, including quantification of phosphorylation of peptide substrates derived from the human JAK3 protein (Saltzman et al., Biochem. Biophys. Res. Commun. 246:627-633 (2004)). The activity of the JAK1, JAK2, JAK3 or TYK2 kinase domains was measured in vitro by monitoring phosphorylation of JAK3 derived peptides using the Caliper LabChip technology (see Examples).
The activity of the isolated JAK1, JAK2 or TYK2 kinase domain was measured by monitoring phosphorylation of a peptide derived from JAK3 (SEQ ID NO:1 […] fluorescently labeled on the N-terminus with 5-carboxyfluorescein using the Caliper LabChip technology (Caliper Life Sciences, Hopkinton, Mass.). […] Reactions were incubated at 22° C. in 384-well polypropylene microtiter plates for 30 minutes and then stopped by addition of 25 uL of an EDTA containing solution (100 mM Hepes pH 7.2, 0.015% Brij-35, 150 mM EDTA), resulting in a final EDTA concentration of 50 mM. After termination of the kinase reaction, the proportion of phosphorylated product was determined as a fraction of total peptide substrate using the Caliper LabChip 3000 according to the manufacturer's specifications. Ki values were then determined using the Morrison tight binding model. Morrison, J. F., Biochim. Biophys. Acta. 185:269-296 (1969); William, J. W. and Morrison, J. F., Meth. Enzymol., 63:437-467 (1979).
In the case of `O=C(Nc1ccnc(NC(=O)[C@H]2C[C@@H]2c2nnn[nH]2)c1)c1c(Cl)cccc1Cl` (relative stereo) [Example 320, N-(2-(trans-2-(1H-tetrazol-5-yl)cyclopropanecarboxamido)pyridin-4-yl)-2,6-dichlorobenzamide], the Ki is reported as ~0.052 µM.
With `N#Cc1cc(Cl)c(C(=O)Nc2ccnc(NC(=O)C3CC3)c2)c(Cl)c1` [Example 256, 2,6-dichloro-4-cyano-N-(2-(cyclopropanecarboxamido)pyridin-4-yl)benzamide] the Ki was ~0.002 µM.

Same assay, conditions: isolated TYK2 kinase domain, 25 uM ATP; values given as 'about'; read-out: Ki values for TYK2 inhibition
Work on `O=C(Nc1ccncc1)c1ccccc1Br` [Example 271, 2-bromo-N-(pyridine-4-yl)benzamide] yielded a Ki of ~0.81 µM.
Work on `O=C(Nc1ccnc(NC(=O)C2CC2)c1)c1c(Cl)cc(CO)cc1Cl` [Example 178, 2,6-dichloro-N-(2-(cyclopropanecarboxamido)-pyridin-4-yl)-4-(hydroxymethyl)benzamide] yielded a Ki of ~0.005 µM.
`O=C(Nc1cc(NC(=O)c2c(Cl)cccc2Cl)ccn1)Oc1ccccc1` [Example 350, phenyl 4-(2,6-dichlorobenzamido)pyridin-2-ylcarbamate] gave a Ki of ~0.062 µM.
For `NC[C@H]1C[C@H]1C(=O)Nc1cc(NC(=O)c2c(F)cccc2Cl)ccn1` (relative stereo) [Example 608, cis-N-(2-(2-(aminomethyl)cyclopropanecarboxamido)pyridin-4-yl)-2-chloro-6-fluorobenzamide], the Ki was ~0.14 µM.
Work on `Cc1ccc(Cl)c(C(=O)Nc2ccncc2)c1F` [Example 17, 6-chloro-2-fluoro-3-methyl-N-(pyridin-4-yl)benzamide] yielded a Ki of ~0.36 µM.
For `COCCOc1ccc(Nc2cc(NC(=O)c3c(Cl)cccc3Cl)ccn2)cc1C(F)(F)F` [Example 115, 2,6-dichloro-N-(2-(4-(2-methoxyethoxy)-3-(trifluoromethyl)phenyl-amino)pyridin-4-yl)benzamide], the Ki was ~0.57 µM.
`Cc1cc(Nc2cc(NC(=O)c3c(Cl)cc(Cl)cc3Cl)ccn2)nc(N2CCOCC2)n1` [Example 380, 2,4,6-trichloro-N-(2-(6-methyl-2-morpholinopyrimidin-4-ylamino)pyridin-4-yl)benzamide] was tested, and the Ki was ~0.0035 µM.
Compound `O=C(Nc1ccnc(Nc2nccs2)c1)c1c(Cl)cccc1Cl` [Example 4, 2,6-dichloro-N-(2-(thiazol-2-ylamino)pyridin-4-yl)benzamide] has a Ki of ~0.38 µM.
Compound `Cc1cc(Nc2cc(NC(=O)c3c(Cl)cc(C#N)cc3Cl)ccn2)nc(N(CCO)CCO)n1` [Example 415, N-(2-(2-(bis(2-hydroxyethyl)amino)-6-methylpyrimidin-4-ylamino)pyridin-4-yl)-2,6-dichloro-4-cyanobenzamide] has a Ki of ~0.0005 µM.
With `CCc1cc(Nc2cc(NC(=O)c3c(Cl)cccc3Cl)ccn2)nc(N(CCO)CCO)n1` [Example 579, N-(2-(2-(bis(2-hydroxyethyl)amino)-6-ethylpyrimidin-4-ylamino)pyridin-4-yl)-2,6-dichlorobenzamide] the Ki was ~0.0006 µM.
With `O=C(Nc1ccc(NC(=O)C2CC2)nc1)c1c(Cl)cccc1Cl` [2,6-dichloro-N-(6-(cyclopropanecarboxamido)-pyridin-3-yl)benzamide, reference compound] the Ki was > 3.5 µM.
`Cc1cc(Nc2nccc(NC(=O)c3c(Cl)cc(C#N)cc3Cl)c2[N+](=O)[O-])nc(C)n1` [Example 238, 2,6-dichloro-4-cyano-N-(2-(2,6-dimethylpyrimidin-4-ylamino)-3-nitropyridin-4-yl)benzamide] gave a Ki of ~0.45 µM.
With `N#Cc1cc(Cl)c(C(=O)Nc2ccnc(N)c2)c(Cl)c1` [Example 281, N-(2-aminopyridin-4-yl)-2,6-dichloro-4-cyanobenzamide] the Ki was ~0.093 µM.
For `Cc1cc(Nc2cc(NC(=O)c3c(Cl)cc(CNCC4CC4)cc3Cl)ccn2)nc(N2CCOCC2)n1` [Example 406, 2,6-dichloro-4-((cyclopropylmethylamino)-methyl)-N-(2-(6-methyl-2-morpholinopyrimidin-4-ylamino)pyridin-4-yl)benzamide], the Ki was ~0.0036 µM.
With `Cc1cc(Nc2cc(NC(=O)c3c(Cl)cc(CO)cc3Cl)ccn2)nc(NCCO)n1` [Example 416, 2,6-dichloro-N-(2-(2-(2-hydroxyethylamino)-6-methylpyrimidin-4-ylamino)pyridin-4-yl)-4-(hydroxymethyl)-benzamide] the Ki was ~0.0006 µM.
Compound `Nc1cc(NC(=O)c2c(Cl)cccc2Cl)ccn1` [Example 2, N-(2-aminopyridin-4-yl)-2,6-dichlorobenzamide] has a Ki of ~0.85 µM.
`O=C(Nc1ccncc1)c1c(Cl)cc(CO)cc1Cl` [Example 76, 2,6-dichloro-4-(hydroxymethyl)-N-(pyridin-4-yl)benzamide] showed a Ki of ~0.22 µM.
Work on `O=C(Nc1ccnc(NC(=O)[C@H]2C[C@H]2F)c1)c1c(Cl)cc(CO)cc1Cl` (relative stereo) [Example 315, 2,6-dichloro-N-(2-(cis-2-fluorocyclopropanecarboxamido)pyridin-4-yl)-4-(hydroxymethyl)benzamide] yielded a Ki of ~0.008 µM.
For `CN(C)C(=O)c1cc(Cl)c(C(=O)Nc2ccnc(NC(=O)C3CC3)c2)c(Cl)c1` [Example 260, 2,6-dichloro-N^1-(2-(cyclopropanecarboxamido)pyridin-4-yl)-N^4,N^4-dimethylterephthalamide], the Ki was ~0.027 µM.
Compound `CCc1cc(Nc2cc(NC(=O)c3c(Cl)cccc3Cl)ccn2)nc(N2CCNCC2)n1` [Example 534, 2,6-dichloro-N-(2-(6-ethyl-2-(piperazin-1-yl)pyrimidin-4-ylamino)pyridin-4-yl)benzamide] has a Ki of ~0.0018 µM.
`Cc1cc(Nc2cc(NC(=O)c3c(Cl)cccc3Cl)ccn2)nc(N)n1` [Example 495, N-(2-(2-amino-6-methylpyrimidin-4-ylamino)pyridin-4-yl)-2,6-dichlorobenzamide] showed a Ki of ~0.0015 µM.
In the case of `O=C(Nc1ccnc(NC(=O)C2CC2)c1F)c1c(Cl)cccc1Cl` (single isomer, unassigned) [Example 263, 2,6-dichloro-N-(3-fluoro-2-cyclopropanecarboxamidopyridin-4-yl)benzamide], the Ki is reported as ~0.024 µM.
`O=C(Nc1cc(NC(=O)C2CC2)ncc1F)c1c(Cl)cccc1Cl` (single isomer, unassigned) [Example 264, 2,6-dichloro-N-(5-fluoro-2-cyclopropanecarboxamidopyridin-4-yl)benzamide] showed a Ki of ~0.01 µM.
For `O=C(Nc1ccncc1)c1c(Cl)cc(-c2cc[nH]n2)cc1Cl` [Example 11, 2,6-dichloro-4-(1H-pyrazol-3-yl)-N-(pyridin-4-yl)benzamide], the Ki was ~0.65 µM.
In the case of `O=C(Nc1ccncc1F)c1c(Cl)cccc1Cl` [Example 272, 2,6-dichloro-N-(3-fluoropyridin-4-yl)benzamide], the Ki is reported as ~0.19 µM.
`O=C(Nc1ccncn1)c1c(Cl)cccc1Cl` [Example 3, 2,6-dichloro-N-(pyrimidin-4-yl)benzamide] showed a Ki of ~0.72 µM.
`CNc1nc(Nc2cc(NC(=O)c3c(Cl)cccc3Cl)ccn2)cc(C(C)C)n1` [Example 551, 2,6-dichloro-N-(2-(6-isopropyl-2-(methylamino)pyrimidin-4-ylamino)pyridin-4-yl)benzamide] gave a Ki of ~0.0033 µM.
Work on `O=C(Nc1ccnc(NC2CC2)n1)c1c(Cl)cccc1Cl` [Example 156, 2,6-dichloro-N-(2-(cyclopropylamino)-pyrimidin-4-yl)benzamide] yielded a Ki of ~0.99 µM.
`CCc1cc(Nc2cc(NC(=O)c3c(Cl)cccc3Cl)ccn2)nc(N2CCC(F)(F)CC2)n1` [Example 572, 2,6-dichloro-N-(2-(2-(4,4-difluoropiperidin-1-yl)-6-ethylpyrimidin-4-ylamino)pyridin-4-yl)benzamide] gave a Ki of ~0.08 µM.

Same assay, conditions: measured at 10 μM concentration of compound
Compound `O=C(Nc1ccc(NC(=O)C2CC2)nc1)c1c(Cl)cccc1Cl` [2,6-dichloro-N-(6-(cyclopropanecarboxamido)-pyridin-3-yl)benzamide, reference compound] has an inhibition at 10 µM of ~5.7%.
